BindingDB's records for doi:10.1021/bi900258v (Pfizer, 2009)

Assays:
[1] = molecular target: T1, Serine/threonine-protein kinase Chk1 (Homo sapiens, UniProt O14757); assay: CHK1 Inhibition Assay; settings: pH 7.4; 22 °C
T1 sequence (O14757 whole entry): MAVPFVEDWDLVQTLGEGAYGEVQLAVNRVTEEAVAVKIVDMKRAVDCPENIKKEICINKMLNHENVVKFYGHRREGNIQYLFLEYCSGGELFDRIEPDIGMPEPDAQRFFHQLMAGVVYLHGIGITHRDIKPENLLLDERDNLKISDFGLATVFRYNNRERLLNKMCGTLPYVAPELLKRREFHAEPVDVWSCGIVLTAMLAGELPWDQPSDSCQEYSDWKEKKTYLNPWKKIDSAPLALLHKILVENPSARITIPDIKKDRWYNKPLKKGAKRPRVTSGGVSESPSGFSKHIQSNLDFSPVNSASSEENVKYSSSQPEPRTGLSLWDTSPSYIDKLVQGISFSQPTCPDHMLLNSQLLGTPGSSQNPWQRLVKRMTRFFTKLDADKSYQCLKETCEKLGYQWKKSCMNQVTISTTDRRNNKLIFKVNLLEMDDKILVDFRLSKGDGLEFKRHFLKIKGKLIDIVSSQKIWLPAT
From the text: The inhibitors reported in this study bind to CHK1 according to a general mechanism illustrated in Scheme 1 where E, S, and I stand for enzyme, substrate and inhibitor using Caliper LC-3000 instrument (Caliper Life Science).

[2] = molecular target: T1, Serine/threonine-protein kinase Chk1; assay: Surface Plasmon Resonance BindingAssay; settings: pH 8; 20 °C
Description: Surface plasmon resonance (SPR) biosensor binding studies were conducted using a Biacore 3000 instrument (GE Healtchare).

| Ki [1] | Ki [2] | Structure (SMILES) |
| --- | --- | --- |
| 146 nM | 290 nM | CC(C)(C)c1ccc(C(=O)NC(=O)Nc2cccc3ccccc23)cc1[N+](=O)O [CHK1 compound 3] |
| 1.75 nM | 5.14 nM | O=C1NN=Cc2c(C(=O)N3C[C@@H](O)[C@@H](O)C3)[nH]c3cc(NC(=O)C4C[C@H]4c4ccccc4)cc1c23 (some centres undefined) [CHK1 compound 1] |
